The results in this text go back to PubChem BioAssay (NCI).

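These data come from cells grown in 96-well plates and exposed to compound for 48 hours at five concentrations. TGI: concentration producing complete growth inhibition.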

Test systems include CAKI-1 renal; COLO 205 colon; HL-60(TB) leukemia; KM12 colon; NCI-H522 lung; OVCAR-4 ovarian; PC-3 prostate; SF-539 CNS; SK-MEL-2 melanoma; SR leukemia.
Holding throughout (assay): NCI-60 cell line screen, 48 h

Turning to `CC(C)(C)C(=O)Oc1ccc(/C=C/C(=O)c2ccc(OC(=O)C(C)(C)C)cc2)cc1`, the TGI in the assay on CAKI-1 renal was 96.7 µM; in the assay with COLO 205 colon, > 100 µM; with HL-60(TB) leukemia it was 75.5 µM; with KM12 colon, 38.5 µM; in the assay with NCI-H522 lung, 8.78 µM; in the assay with OVCAR-4 ovarian it was > 100 µM. Further, the TGI in the assay with PC-3 prostate was > 100 µM; in the assay on SF-539 CNS, > 100 µM; with SK-MEL-2 melanoma, > 100 µM; in the assay with SR leukemia, 76.4 µM.

For the molecule `O=[N+]([O-])c1ccc(C2ON=C(c3ccccc3)N2C23CC4CC(CC(C4)C2)C3)cc1` (stereo not given), the TGI in the assay on CAKI-1 renal, in the assay with COLO 205 colon, with HL-60(TB) leukemia, with KM12 colon, in the assay with NCI-H522 lung and in the assay on OVCAR-4 ovarian was > 10 µM in each case. Moreover, the TGI in the assay on PC-3 prostate, in the assay with SF-539 CNS, with SK-MEL-2 melanoma and with SR leukemia was > 10 µM in each case.

Regarding `N#Cc1c2ccc([N+](=O)[O-])cc2c(=O)n2c1[nH]c1ccc(C(F)(F)F)cc12`, the TGI in the assay with CAKI-1 renal was > 100 µM; in the assay on COLO 205 colon, > 46.3 µM; in the assay with HL-60(TB) leukemia, > 100 µM; in the assay with KM12 colon it was > 100 µM; in the assay on NCI-H522 lung, 38.7 µM; in the assay on OVCAR-4 ovarian, > 100 µM. Also, the TGI with PC-3 prostate was > 100 µM; with SF-539 CNS, > 100 µM; in the assay with SK-MEL-2 melanoma, > 100 µM; with SR leukemia, > 25.7 µM.

As to `Clc1ccc2c(NCCCCN3OC3c3ccccc3)ccnc2c1` (stereo not given), the TGI is 21.8 µM in the assay on CAKI-1 renal; 7.12 µM in the assay on COLO 205 colon; 2.63 µM in the assay with HL-60(TB) leukemia; 22.8 µM with KM12 colon; 16.4 µM in the assay on NCI-H522 lung; 12 µM in the assay with OVCAR-4 ovarian. Also, the TGI is 26.7 µM with PC-3 prostate, 3.63 µM in the assay with SF-539 CNS, 11.1 µM in the assay on SK-MEL-2 melanoma and > 100 µM in the assay on SR leukemia.

On to `NC(=O)CSc1c2cc(O)ccc2nc2ccc(O)cc12`, for which the TGI in the assay on CAKI-1 renal, with COLO 205 colon, in the assay with HL-60(TB) leukemia, in the assay with KM12 colon, with NCI-H522 lung and in the assay on OVCAR-4 ovarian was > 10 µM in each case. For the same molecule, the TGI in the assay on PC-3 prostate, in the assay with SF-539 CNS, in the assay with SK-MEL-2 melanoma and in the assay on SR leukemia was > 10 µM throughout.

As to `N#Cc1c(Cl)c2cccnc2n2c1nc1ccccc12`, the TGI worked out at 3.71 µM with CAKI-1 renal; 4.02 µM in the assay on COLO 205 colon; 3.78 µM in the assay with HL-60(TB) leukemia; 20.3 µM in the assay with KM12 colon; 2.68 µM in the assay on NCI-H522 lung; 5.29 µM with OVCAR-4 ovarian. The TGI in the assay with PC-3 prostate turned out to be 6.23 µM; in the assay with SF-539 CNS, 5.4 µM; in the assay with SK-MEL-2 melanoma, 23.3 µM; in the assay with SR leukemia, 5.83 µM.

Regarding `CCCCCCCCC/C=C1/CC(CO)(COC(=O)CC(C(C)C)C(C)C)OC1=O` (stereo not given), the TGI with CAKI-1 renal turned out to be 17.4 µM; in the assay on COLO 205 colon, 4.64 µM; with HL-60(TB) leukemia it was 15.4 µM; with KM12 colon it was 23.1 µM; in the assay on NCI-H522 lung, 23.6 µM; with OVCAR-4 ovarian, 28.4 µM. Also, the TGI in the assay with PC-3 prostate was 21.3 µM; with SF-539 CNS, 24.2 µM; with SK-MEL-2 melanoma, 29.7 µM; with SR leukemia it was > 54.2 µM.

For `COC(=O)C1Cc2c(OC)ccc(OC)c2C(O)C1C(=O)OC` (stereo not given), the TGI in the assay with CAKI-1 renal, with COLO 205 colon, with HL-60(TB) leukemia, in the assay with KM12 colon, in the assay on NCI-H522 lung and in the assay with OVCAR-4 ovarian was > 100 µM each time. In addition, the TGI in the assay on PC-3 prostate, in the assay on SF-539 CNS, with SK-MEL-2 melanoma and in the assay on SR leukemia was > 100 µM in each case.

`C/C(=N\NC(=S)N1CCC(N2CCCCC2)CC1)c1ccccn1`: the TGI in the assay with CAKI-1 renal was 5.87 µM; with COLO 205 colon it was 9.95 µM; in the assay on HL-60(TB) leukemia, > 21 µM; in the assay with KM12 colon it was 9.53 µM; in the assay with NCI-H522 lung it was 0.646 µM; in the assay with OVCAR-4 ovarian, 16.7 µM. Further, the TGI in the assay with PC-3 prostate is 10.3 µM; in the assay on SF-539 CNS it was 8.36 µM; in the assay on SK-MEL-2 melanoma, > 100 µM; in the assay with SR leukemia it was 9.74 µM.

Consider `Nc1nccc(NCC2(CO)CC(OCc3ccccc3)C2)n1` (stereo not given), for which the TGI with CAKI-1 renal, in the assay with COLO 205 colon, in the assay on HL-60(TB) leukemia, in the assay with KM12 colon, in the assay with NCI-H522 lung and with OVCAR-4 ovarian was > 100 µM each time. Also, the TGI in the assay with PC-3 prostate, in the assay on SF-539 CNS, in the assay on SK-MEL-2 melanoma and in the assay with SR leukemia was > 100 µM throughout.

On to `Clc1ccc(-c2cc(-c3cc4cc(Br)ccc4nc3Cl)on2)cc1`, for which the TGI with CAKI-1 renal is > 50 µM; with COLO 205 colon it was 15.4 µM; with HL-60(TB) leukemia, 4.89 µM; in the assay with KM12 colon, > 50 µM; in the assay with NCI-H522 lung, 21.8 µM; in the assay with OVCAR-4 ovarian, > 50 µM. For the same molecule, the TGI with PC-3 prostate is > 50 µM; in the assay on SF-539 CNS, 17.5 µM; in the assay on SK-MEL-2 melanoma, 21.9 µM; in the assay with SR leukemia, > 50 µM.

For the molecule `C[C@H]1C2Cc3cc(O)ccc3[C@@]1(C)CCN2CCc1ccc(N)cc1`, the TGI was > 100 µM in the assay with CAKI-1 renal; > 100 µM in the assay with COLO 205 colon; > 100 µM with HL-60(TB) leukemia; 34.3 µM in the assay on KM12 colon; 36.2 µM in the assay on NCI-H522 lung; > 100 µM in the assay on OVCAR-4 ovarian. The TGI in the assay with PC-3 prostate is 34.8 µM; with SF-539 CNS it was 31.3 µM; with SK-MEL-2 melanoma it was > 100 µM; in the assay with SR leukemia, 72.8 µM.

On to `O=Cc1ccc(OC[C@H]2COC(=O)N2)cc1`, for which the TGI with CAKI-1 renal, in the assay with COLO 205 colon, with HL-60(TB) leukemia, with KM12 colon, in the assay on NCI-H522 lung and in the assay on OVCAR-4 ovarian was > 100 µM in each case. For the same molecule, the TGI with PC-3 prostate, in the assay with SF-539 CNS, with SK-MEL-2 melanoma and in the assay on SR leukemia was > 100 µM each time.

For the molecule `COc1cc(/C=N/N=C(\N)NO)cc(OC)c1OC`, the TGI is > 100 µM in the assay on CAKI-1 renal; > 100 µM with COLO 205 colon; 42.1 µM in the assay with HL-60(TB) leukemia; > 100 µM in the assay on KM12 colon; 80.6 µM in the assay with NCI-H522 lung; > 100 µM in the assay on OVCAR-4 ovarian. The TGI with PC-3 prostate was > 100 µM; with SF-539 CNS, 75.7 µM; in the assay with SK-MEL-2 melanoma it was > 100 µM; with SR leukemia, 71.2 µM.
